We go through one compound from patent US20040047831A1, “Use of a cell extract of at least a plant of the family pontederiaceae as anti-pollution agent” (priority 2000, published 2004).

The data set concerns human keratinocytes. Put plainly: Cytotoxicity of cadmium chloride toward human keratinocytes in culture (intracellular glutathione, monochlorobimane probe), in the presence or absence of hyacinth extract. In kind it is cell-based. The conditions noted are these: 24 hours; for toxicity toward human keratinocytes: human keratinocytes in vitro. How it is done: Heavy metals such as cadmium, nickel, lead, mercury, etc. can lead to cytotoxicity on the cells of various organs including the skin. The cytotoxic effect of cadmium on human keratinocytes in culture was evaluated by means of a technique using a fluorescent probe to measure the level of intracellular glutathione (J. C. Fernandez Checa et al. 1990, R. Kannan et al. 1993).
The study was performed on a monolayer culture of human keratinocytes obtained from plastic surgeries. The cells are inoculated on D-3 into 96-well culture dishes at a rate of 25 000 cells/cm^2 in 100 μl of culture medium (calf serum-free defined medium, NR2, Biofluids). The incubations are performed in an incubator at 37° C. under a humid atmosphere enriched with 5% CO2.
The cells are treated for 24 hours with increasing concentrations (0, 10, 25, 50, 75, 100, 150 and 200 μM) of cadmium chloride (CdCl2) alone, so as to determine its cytotoxicity. In parallel, a treatment is performed under the same conditions, but in the presence of hyacinth extract (0.125%). The incubations are performed in an incubator at 37° C., [lacuna]% CO2 under a humid atmosphere.
At the end of the contact period, labeling of the intracellular glutathione is performed using a specific fluorescent probe: monochlorobimane (MCB).
Briefly, after treatment, rinse the cells with buffer (PBS) so as to remove the treatment solutions.
Add 100 μl per well of a 1 mM MCB solution over one hour at room temperature and protected from light.
Eliminate the MCB, and add 200 μl/well of PBS buffer.
Read on the spectrofluorimeter (excitation: 380 nm; emission: 485 nm).
The fluorescence obtained is proportional to the amount of glutathione conjugated to the MCB.
Calculate the concentration of CdCl2 that results in a 50% drop in the level of glutathione (=IC.50)

Regarding `[Cl][Cd][Cl]` [cadmium chloride], the IC50 (CdCl2 alone, human keratinocyte monolayer, concentration giving 50% drop in glutathione level/cell viability, 3 independent experiments, read-out: IC.50 of cadmium chloride without protecting agent, Mean ± SEM) is 43.7 µM. Also, the “toxicity toward human keratinocytes” value (listed as Cadmium chloride) is listed as “considerable toxicity” and the “toxicity toward human keratinocytes” value (listed as cadmium) is listed as “strong toxicity”.
